# According to patent US20230141600A1, “IMIDAZOPYRAZINE DERIVATIVES” (priority 2020, published 2023):
# Counter-ions that a name gives are not always drawn.
# Tested on: Acinetobacter baumannii ATCC17961
# Test: 90% growth inhibitory concentration (IC90) determination, antimicrobial susceptibility testing
# Assay type: cell-based
# Conditions: Acinetobacter baumannii, ATCC17961, 16 h, 90% growth inhibition, Iso-Sensitest broth, OD 600 nm over 16 h, 35±2° C.; read-out: ATCC 17961 IC90
# Experimental: Antimicrobial Susceptibility Testing:
# 90% Growth Inhibitory Concentration (IC90) Determination
# The in vitro antimicrobial activity of the compounds was determined according to the following procedure:
# The assay used a 10-points Iso-Sensitest broth medium to measure quantitatively the in vitro activity of the compounds against Acinetobacter baumannii ATCC17961 and ATCC17978.
# Stock compounds in DMSO were serially twofold diluted (e.g. range from 50 to 0.097 μM final concentration) in 384 wells microtiter plates and inoculated with 49 μl the bacterial suspension in Iso-Sensitest medium to have a final cell concentration of ˜5×10^(5) CFU/ml in a final volume/well of 50 ul/well. Microtiter plates were incubated at 35±2° C.
# Bacterial cell growth was determined with the measurement of optical density at λ=600 nm each minutes over a time course of 16 h. Growth inhibition was calculated during the logarithmic growth of the bacterial cells with determination of the concentration inhibiting 50% (IC50) and 90% (IC90) of the growth.
# Table 2 provides the 90% growth inhibitory concentrations (IC90) in micromoles per liter of the compounds of present invention obtained against the strain Acinetobacter baumannii ATCC17961.
row,Structure (SMILES),IC90
1,"COc1ccc(-c2cnc3c(Nc4ccc(C(=O)N[C@@H]5CCN(C(=O)C[N+](C)(C)C)C5)c(C)c4)nccn23)c(F)c1F [Example 70, (R)-2-(3-(4-((3-(2,3-difluoro-4-methoxyphenyl)imidazo[1,2-a]pyrazin-8-yl)amino)-2-methylbenzamido)pyrrolidin-1-yl)-N,N,N-trimethyl-2-oxoethan-1-aminium Chloride]",44.5 nM
2,"COc1ccc(-c2cnc3c(Nc4ccc(C(=O)NCCC[N+](C)(C)CCO)c(Cl)c4)nccn23)c(F)c1F [Example 73, 3-(2-chloro-4-((3-(2,3-difluoro-4-methoxyphenyl)imidazo[1,2-a]pyrazin-8-yl)amino)benzamido)-N-(2-hydroxyethyl)-N,N-dimethylpropan-1-aminium Formate]",121 nM
3,"CCOC(=O)C[N+](C)(C)CCOCCNC(=O)c1ccc(Nc2nccn3c(-c4ccc(OC)c(F)c4F)cnc23)cc1CC [Example 75, N-(2-(2-(4-((3-(2,3-Difluoro-4-methoxyphenyl)imidazo[1,2-a]pyrazin-8-yl)amino)-2-ethylbenzamido)ethoxy)ethyl)-2-ethoxy-N,N-dimethyl-2-oxoethan-1-aminium Formate]",65.8 nM
4,"CCc1cc(Nc2nccn3c(-c4ccc(OC)c(F)c4F)cnc23)ccc1C(=O)N[C@H]1CC[C@H](NC(=O)C[N+](C)(C)C)CC1 [Example 77, Trans-[2-[[4-[[4-[[3-(2,3-Difluoro-4-methoxyphenyl)imidazo[1,2-a]pyrazin-8-yl]amino]-2-ethylbenzoyl]amino]cyclohexyl]amino]-2-oxoethyl]-trimethylazanium formate]",342 nM
5,"CCc1cc(Nc2nccn3c(-c4ccc(OC(F)F)c(F)c4F)cnc23)ccc1C(=O)N1CCN(C(=O)C2CC[N+](C)(CC34CC(N)(C3)C4)CC2)CC1 (centres unmarked) [Example 86, [4-[1-[(3-amino-1-bicyclo[1.1.1]pentanyl)methyl]-1-methyl-piperidin-1-ium-4-carbonyl]piperazin-1-yl]-[4-[[3-[4-(difluoromethoxy)-2,3-difluoro-phenyl]imidazo[1,2-a]pyrazin-8-yl]amino]-2-ethyl-phenyl]methanone bis(2,2,2-trifluoroacetate)]",168 nM
6,"CCc1cc(Nc2nccn3c(-c4ccc(OC(F)F)c(F)c4F)cnc23)ccc1C(=O)NCC1CC[N+](C)(CC2CNC2)C1 (centres unmarked) [Example 88, N-[[1-(azetidin-3-ylmethyl)-1-methyl-pyrrolidin-1-ium-3-yl]methyl]-4-[[3-[4-(difluoromethoxy)-2,3-difluoro-phenyl]imidazo[1,2-a]pyrazin-8-yl]amino]-2-ethyl-benzamide bis(2,2,2-trifluoroacetate)]",485 nM

# More lines, now with the values ahead:
row,IC90,Structure (SMILES)
1,67.7 nM,"CCc1cc(Nc2nccn3c(-c4ccc(OC)c(F)c4F)cnc23)ccc1C(=O)NC1CN(C(=O)C[N+](C)(C)CC(N)=O)C1 [Example 71, 2-Amino-N-(2-(3-(4-((3-(2,3-difluoro-4-methoxyphenyl)imidazo[1,2-a]pyrazin-8-yl)amino)-2-ethylbenzamido)azetidin-1-yl)-2-oxoethyl)-N,N-dimethyl-2-oxoethan-1-aminium Formate]"
2,40.3 nM,"COc1ccc(-c2cnc3c(Nc4ccc(C(=O)N[C@H]5C[C@@H](NC(=O)C[N+](C)(C)C)C5)c(C)c4)nccn23)c(F)c1F [Example 72, 2-(((1s,3s)-3-(4-((3-(2,3-Difluoro-4-methoxyphenyl)imidazo[1,2-a]pyrazin-8-yl)amino)-2-methylbenzamido)cyclobutyl)amino)-N,N,N-trimethyl-2-oxoethan-1-aminium Chloride]"
3,31 nM,"CCc1cc(Nc2nccn3c(-c4ccc(OC)c(F)c4F)cnc23)ccc1C(=O)NCCOCC[N+](C)(C)CC#N [Example 74, N-(Cyanomethyl)-2-(2-(4-((3-(2,3-difluoro-4-methoxyphenyl)imidazo[1,2-a]pyrazin-8-yl)amino)-2-ethylbenzamido)ethoxy)-N,N-dimethylethan-1-aminium Formate]"
4,27.4 nM,"CCc1cc(Nc2nccn3c(-c4ccc(OC)c(F)c4F)cnc23)ccc1C(=O)NCCCCC[N+](C)(C)CC(N)=O [Example 76, Mono(N-(2-amino-2-oxoethyl)-5-(4-((3-(2,3-difluoro-4-methoxyphenyl)imidazo[1,2-a]pyrazin-8-yl)amino)-2-ethylbenzamido)-N,N-dimethylpentan-1-aminium) monoformate Monoiodide]"
5,467 nM,"CCc1cc(Nc2nccn3c(-c4cn(CC#N)nc4C(F)(F)F)cnc23)ccc1C(=O)NCCOCC[N+]1(CC#N)CCOCC1 [Example 78, 4-(Cyanomethyl)-4-(2-(2-(4-((3-(1-(cyanomethyl)-3-(trifluoromethyl)-1H-pyrazol-4-yl)imidazo[1,2-a]pyrazin-8-yl)amino)-2-ethylbenzamido)ethoxy)ethyl)morpholin-4-ium Formate]"
6,82.2 nM,"CCc1cc(Nc2nccn3c(-c4ccc(OC(F)F)c(F)c4F)cnc23)ccc1C(=O)NCCCCC[N+](C)(C)CC(=O)N1CCNCC1 [Example 79, 5-[[4-[[3-[4-(Difluoromethoxy)-2,3-difluoro-phenyl]imidazo[1,2-a]pyrazin-8-yl]amino]-2-ethyl-benzoyl]amino]pentyl-dimethyl-(2-oxo-2-piperazin-1-yl-ethyl)ammonium bis(2,2,2-trifluoroacetate)]"
7,95.9 nM,"CCc1cc(Nc2nccn3c(-c4ccc(OC(F)F)c(F)c4F)cnc23)ccc1C(=O)NCC1C2C[N+](C)(CC3CNC3)CC12 (centres unmarked) [Example 80, N-[[3-(azetidin-3-ylmethyl)-3-methyl-3-azoniabicyclo[3.1.1]hexan-6-yl]methyl]-4-[[3-[4-(difluoromethoxy)-2,3-difluoro-phenyl]imidazo[1,2-a]pyrazin-8-yl]amino]-2-ethyl-benzamide bis(2,2,2-trifluoroacetate)]"
8,107 nM,"CCc1cc(Nc2nccn3c(-c4ccc(OC(F)F)c(F)c4F)cnc23)ccc1C(=O)N1CCN(C(=O)C2CC[N+](C)(CC3CNC3)CC2)CC1 (centres unmarked) [Example 81, 1-(Azetidin-3-ylmethyl)-4-(4-(4-((3-(4-(difluoromethoxy)-2,3-difluorophenyl)imidazo[1,2-a]pyrazin-8-yl)amino)-2-ethylbenzoyl)piperazine-1-carbonyl)-1-methylpiperidin-1-ium 2,2,2-trifluoroacetate]"
9,127 nM,"CCc1cc(Nc2nccn3c(-c4ccc(OC(F)F)c(F)c4F)cnc23)ccc1C(=O)N1CCN(C(=O)C2CC[N+](C)(CCN)CC2)CC1 (centres unmarked) [Example 83, [4-[1-(2-aminoethyl)-1-methyl-piperidin-1-ium-4-carbonyl]piperazin-1-yl]-[4-[[3-[4-(difluoromethoxy)-2,3-difluoro-phenyl]imidazo[1,2-a]pyrazin-8-yl]amino]-2-ethyl-phenyl]methanone bis(2,2,2-trifluoroacetate)]"
10,132 nM,"CCc1cc(Nc2nccn3c(-c4ccc(OC(F)F)c(F)c4F)cnc23)ccc1C(=O)N1CCN(C(=O)C2CC[N+](C)(CC3CCNC3)CC2)CC1 (centres unmarked) [Example 84, [4-[[3-[4-(difluoromethoxy)-2,3-difluoro-phenyl]imidazo[1,2-a]pyrazin-8-yl]amino]-2-ethyl-phenyl]-[4-[1-methyl-1-(pyrrolidin-3-ylmethyl)piperidin-1-ium-4-carbonyl]piperazin-1-yl]methanone bis(2,2,2-trifluoroacetate)]"
11,147 nM,"CCc1cc(Nc2nccn3c(-c4ccc(OC(F)F)c(F)c4F)cnc23)ccc1C(=O)N1CCN(C(=O)C2CC[N+](C)(CCNC)CC2)CC1 (centres unmarked) [Example 85, [4-[[3-[4-(difluoromethoxy)-2,3-difluoro-phenyl]imidazo[1,2-a]pyrazin-8-yl]amino]-2-ethyl-phenyl]-[4-[1-methyl-1-[2-(methylamino)ethyl]piperidin-1-ium-4-carbonyl]piperazin-1-yl]methanone bis(2,2,2-trifluoroacetate)]"
12,634 nM,"CCc1cc(Nc2nccn3c(-c4ccc(OC(F)F)c(F)c4F)cnc23)ccc1C(=O)NCCCCC[N+](C)(CC1CNC1)CC1CNC1 [Example 89, Bis(azetidin-3-ylmethyl)-[5-[[4-[[3-[4-(difluoromethoxy)-2,3-difluoro-phenyl]imidazo[1,2-a]pyrazin-8-yl]amino]-2-ethyl-benzoyl]amino]pentyl]-methyl-ammonium bis(2,2,2-trifluoroacetate)]"

# Same assay, conditions: Acinetobacter baumannii, ATCC17961, 16 h, read-out: ATCC 17961 IC90
row,Structure (SMILES),IC90
1,"CCc1cc(Nc2nccn3c(-c4ccc(OC(F)F)c(F)c4F)cnc23)ccc1C(=O)NCCCNC(=O)C1CC[N+](C)(CC2CCNC2)CC1 (centres unmarked) [Example 82, N-[3-[[4-[[3-[4-(Difluoromethoxy)-2,3-difluoro-phenyl]imidazo[1,2-a]pyrazin-8-yl]amino]-2-ethyl-benzoyl]amino]propyl]-1-methyl-1-(pyrrolidin-3-ylmethyl)piperidin-1-ium-4-carboxamide bis (2,2,2-trifluoroacetate)]",110 nM
2,"CCc1cc(Nc2nccn3c(-c4ccc(OC(F)F)c(F)c4F)cnc23)ccc1C(=O)NCC1CC[N+](C)(CC2CNC2)CC1 (centres unmarked) [Example 87, N-[[1-(azetidin-3-ylmethyl)-1-methyl-piperidin-1-ium-4-yl]methyl]-4-[[3-[4-(difluoromethoxy)-2,3-difluoro-phenyl]imidazo[1,2-a]pyrazin-8-yl]amino]-2-ethyl-benzamide Diformate]",318 nM
